Converted amounts (≈) assume the structure as drawn.

The subject of data set [1] is HCT116. Briefly: MTT antitumour (cytotoxicity) assay, HCT116. The settings on record: Homo sapiens, HCT-116, HCT116 cell line, 50% inhibition of tumour cell proliferation, read-out: In vitro cytotoxicity IC50. In kind it is cell-based. How it is done: (§1) The designed compounds were evaluated for their in vitro antitumour effect using the standard MTT method against two human tumour cell lines, namely, HepG2 and HCT116[45–48]. The quantitative evaluation of the cytotoxicity was performed using tetrazolium salt MTT (3-(4,5-dimethyl-2-thiazolyl)-2,5-diphenyl-2 H-tetrazolium bromide) assay. The cytotoxic activity was expressed as the concentration of the compound that caused 50% growth inhibition (IC50, mean ± SEM) compared with the growth of untreated cells.

Data set [2] deals with HepG2. Briefly: MTT antitumour (cytotoxicity) assay, HepG2. The format is cell-based. The settings on record: Homo sapiens, HepG2, HepG2 cell line, 50% inhibition of tumour cell proliferation, read-out: In vitro cytotoxicity IC50. The procedure:
as §1

Data set [3] has as its target EGFR kinase (Homo sapiens, UniProt P00533). Description: ELISA-based EGFR-TK kinase inhibition assay. In kind it is biochemical. The settings on record: n = 3, read-out: Enzymatic IC50 toward EGFR kinase. How it is done:
EGFR kinase activity was determined via enzyme-linked immunosorbent assay (ELISA) in 96-well plates. The EGFR kinase activity for each compound were expressed as IC50 values. Data were represented as mean ± SD from three independent experiments, and differences between groups were considered statistically significant at p < .05.
The mechanism of antitumour activity of the target compounds was studied using ELISA-based EGFR-TK assay.
Background: ELISA stands for enzyme-linked immunosorbent assay.

Sequence of EGFR kinase (P00533 25-1210): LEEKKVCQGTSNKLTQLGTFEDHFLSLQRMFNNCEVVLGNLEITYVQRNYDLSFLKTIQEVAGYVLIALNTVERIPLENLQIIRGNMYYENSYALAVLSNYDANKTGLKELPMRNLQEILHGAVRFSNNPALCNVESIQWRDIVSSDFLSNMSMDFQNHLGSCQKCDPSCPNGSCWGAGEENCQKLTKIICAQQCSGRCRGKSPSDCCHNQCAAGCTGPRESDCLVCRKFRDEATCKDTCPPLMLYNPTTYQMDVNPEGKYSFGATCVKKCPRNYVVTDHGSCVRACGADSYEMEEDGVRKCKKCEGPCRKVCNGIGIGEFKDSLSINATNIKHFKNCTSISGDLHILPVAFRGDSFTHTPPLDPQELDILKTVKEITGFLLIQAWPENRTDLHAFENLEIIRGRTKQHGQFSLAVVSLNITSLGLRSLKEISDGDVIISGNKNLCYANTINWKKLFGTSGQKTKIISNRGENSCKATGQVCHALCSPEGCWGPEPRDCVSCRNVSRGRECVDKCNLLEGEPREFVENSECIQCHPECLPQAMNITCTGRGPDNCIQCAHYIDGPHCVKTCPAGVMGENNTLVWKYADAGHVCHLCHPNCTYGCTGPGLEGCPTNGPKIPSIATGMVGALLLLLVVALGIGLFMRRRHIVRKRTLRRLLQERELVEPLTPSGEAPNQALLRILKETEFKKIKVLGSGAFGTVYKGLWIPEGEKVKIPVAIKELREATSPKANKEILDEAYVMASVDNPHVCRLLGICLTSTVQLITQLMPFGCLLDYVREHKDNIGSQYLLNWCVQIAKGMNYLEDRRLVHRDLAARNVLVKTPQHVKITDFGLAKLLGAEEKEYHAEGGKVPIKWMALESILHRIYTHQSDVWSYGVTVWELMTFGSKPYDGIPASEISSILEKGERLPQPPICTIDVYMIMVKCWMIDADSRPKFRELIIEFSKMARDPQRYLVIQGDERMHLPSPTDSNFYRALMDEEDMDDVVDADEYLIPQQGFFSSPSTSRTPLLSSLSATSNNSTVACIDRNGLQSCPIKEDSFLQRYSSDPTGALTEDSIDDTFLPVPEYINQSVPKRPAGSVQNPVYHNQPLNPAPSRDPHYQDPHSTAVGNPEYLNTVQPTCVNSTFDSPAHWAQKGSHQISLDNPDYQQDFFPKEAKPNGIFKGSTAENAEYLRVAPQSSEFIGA

Consider `CN(C)C/C=C/C(=O)Nc1cc2c(Nc3ccc(F)c(Cl)c3)ncnc2cc1O[C@H]1CCOC1` [Afatinib, afatinib, reference compound], for which the IC50 (as a rule, the concentration needed to halve the response being measured) in data set [1] turned out to be 11.4 ± 1.26 µg/mL (≈ 23.5 µM); in data set [2], 5.4 ± 0.25 µg/mL (≈ 11.1 µM).
For `CN(C)c1ccc(/C=C/c2cc(C(=O)O)c3cc(Br)ccc3n2)cc1` [Compound 3a], the IC50 in data set [3] came to 2.23 µM; in data set [1], 9 ± 0.35 µg/mL (≈ 22.7 µM); in data set [2], 9.8 ± 0.2 µg/mL (≈ 24.7 µM).
For `Cc1ccc2nc(C=Cc3ccc(N(C)C)cc3)cc(C(=O)O)c2c1` [Compound 3b, 2–(4-(Dimethylamino)styryl)-6-methylquinoline-4-carboxylic acid], the melting point – broadly, the temperature of the solid-liquid transition – worked out at 275 °C. In addition, the IC50 in data set [3] stood at 8.01 µM. In data set [1], the IC50 is 14.8 ± 0.89 µg/mL (≈ 44.5 µM). The IC50 in data set [2] is 17.2 ± 1.04 µg/mL (≈ 51.7 µM).
In turn, `CN(C)c1ccc(C=Cc2cc(-c3nnc(N)s3)c3cc(Br)ccc3n2)cc1` [Compound 4a, 5-(6-Bromo-2–(4-(dimethylamino)styryl)quinolin-4-yl)-1,3,4-thiadiazol-2-amine] returned a melting point of 223 °C. In addition, the IC50 in data set [3] came out at 8.78 µM. The IC50 in data set [1] amounted to 14.2 ± 0.67 µg/mL (≈ 31.4 µM). Besides, the IC50 in data set [2] turned out to be 9 ± 0.19 µg/mL (≈ 19.9 µM).
In turn, `Cc1ccc2nc(C=Cc3ccc(N(C)C)cc3)cc(-c3nnc(N)s3)c2c1` [Compound 4b, 5-(2-(4-(Dimethylamino)styryl)-6-methylquinolin-4-yl)-1,3,4-thiadiazol-2-amine] had a melting point of 226 °C. For the same compound, in data set [3], the IC50 is 1.11 µM. Further, the IC50 in data set [1] amounted to 8.8 ± 0.26 µg/mL (≈ 22.7 µM). In addition, in data set [2], the IC50 came out at 7.7 ± 0.15 µg/mL (≈ 19.9 µM).
Consider `O=c1[nH]cc(F)c(=O)[nH]1` [Compound 5-FU, 5-fluorouracil, reference compound], for which the IC50 in data set [1] turned out to be 5.3 ± 0.32 µg/mL (≈ 40.7 µM); in data set [2] it was 7.9 ± 0.17 µg/mL (≈ 60.7 µM).
Compound `CN(C)c1ccc(C=Cc2cc(C(=O)Oc3ccc(C=O)cc3)c3cc(Br)ccc3n2)cc1` [Compound 6a, 4-Formylphenyl 6-bromo-2-(4-(dimethylamino)styryl)quinoline-4-carboxylate] came in with a melting point of 242 °C. The IC50 in data set [1] is 96.6 ± 5.4 µg/mL (≈ 193 µM). Besides, in data set [2], the IC50 came out at 82.9 ± 4.64 µg/mL (≈ 165 µM).
The like results for `Cc1ccc2nc(C=Cc3ccc(N(C)C)cc3)cc(C(=O)Oc3ccc(C=O)cc3)c2c1` [Compound 6b, 4-Formylphenyl 2-(4-(dimethylamino)styryl)-6-methylquinoline-4-carboxylate] were, in that order, 248 °C, over 100 µg/mL and over 100 µg/mL.
Taken in the same sequence, the figures for `CN(C)c1ccc(C=Cc2cc(C(=O)NNc3ccccc3)c3cc(Br)ccc3n2)cc1` [Compound 7a, 6-Bromo-2-(4-(dimethylamino)styryl)-N'-phenylquinoline-4-carbohydrazide] were 232 °C, 49.7 ± 3 µg/mL (≈ 102 µM) and 46.1 ± 2.81 µg/mL (≈ 94.6 µM).
Taken in the same sequence, the figures for `Cc1ccc2nc(C=Cc3ccc(N(C)C)cc3)cc(C(=O)NNc3ccccc3)c2c1` [Compound 7b, 2-(4-(Dimethylamino)styryl)-6-methyl-N'-phenylquinoline-4-carbohydrazide] were 228 °C, 61.4 ± 3.76 µg/mL (≈ 145 µM) and 72.8 ± 3.82 µg/mL (≈ 172 µM).
Regarding `CCOC(=O)C(C#N)C(=O)c1cc(C=Cc2ccc(N(C)C)cc2)nc2ccc(Br)cc12` (centres unmarked) [Compound 8a, Ethyl 3-(6-bromo-2-(4-(dimethylamino)styryl)quinolin-4-yl)-2-cyano-3-oxopropanoate], the melting point was over 300 °C. Moreover, in data set [3], the IC50 turned out to be 16 µM. Further, in data set [1], the IC50 amounted to 16 ± 0.88 µg/mL (≈ 32.5 µM). Besides, the IC50 in data set [2] was determined as 26.2 ± 1.79 µg/mL (≈ 53.2 µM).
Take `CCOC(=O)C(C#N)C(=O)c1cc(C=Cc2ccc(N(C)C)cc2)nc2ccc(C)cc12` (centres unmarked) [Compound 8b, Ethyl 2-cyano-3-(2-(4-(dimethylamino)styryl)-6-methylquinolin-4-yl)-3-oxopropanoate]: the melting point was over 300 °C. Moreover, in data set [1], the IC50 was determined as 52.6 ± 3.92 µg/mL (≈ 123 µM). Also, in data set [2], the IC50 was determined as 43.7 ± 2.66 µg/mL (≈ 102 µM).
`CC(=O)C(C(C)=O)C(=O)c1cc(C=Cc2ccc(N(C)C)cc2)nc2ccc(Br)cc12` [Compound 9a, 3-(6-Bromo-2-(4-(dimethylamino)styryl)quinoline-4-carbonyl)pentane-2,4-dione] registered a melting point of over 300 °C. Further, in data set [1], the IC50 turned out to be 57.3 ± 3.07 µg/mL (≈ 120 µM). The IC50 in data set [2] was determined as 65.4 ± 3.18 µg/mL (≈ 136 µM).
The like results for `CC(=O)C(C(C)=O)C(=O)c1cc(C=Cc2ccc(N(C)C)cc2)nc2ccc(C)cc12` [Compound 9b, 3-(2-(4-(Dimethylamino)styryl)-6-methylquinoline-4-carbonyl)pentane-2,4-dione] were, in that order, over 300 °C, 93.1 ± 5.64 µg/mL (≈ 225 µM) and over 100 µg/mL.

(Values after article PMC7012010, “Synthesis and biological evaluation of 2-styrylquinolines as antitumour agents and EGFR kinase inhibitors: molecular docking study” (Journal of Enzyme Inhibition and Medicinal Chemistry, 2017).)
